Molecules are shown by their SMILES.

The values below come from ChEMBL document CHEMBL1681655, “Identification of a new series of non-peptidic NK3 receptor antagonists” (Bioorg Med Chem Lett, 2011).

A short description of data set [1]: Apparent permeability of the compound in human Caco2 cells. The data set is classed as ADME, cell-based. As to conditions: caco-2. (Passage across Caco-2 layers is used to estimate intestinal permeability.)
Data set [2] deals with Substance-P receptor (Homo sapiens, UniProt P25103). Kind of data set: Displacement of [125I]SP from human cloned NK1 receptor. Background: Displacement assays read how much labelled ligand stays bound in the presence of the test substance.
Sequence of Substance-P receptor (P25103 whole entry): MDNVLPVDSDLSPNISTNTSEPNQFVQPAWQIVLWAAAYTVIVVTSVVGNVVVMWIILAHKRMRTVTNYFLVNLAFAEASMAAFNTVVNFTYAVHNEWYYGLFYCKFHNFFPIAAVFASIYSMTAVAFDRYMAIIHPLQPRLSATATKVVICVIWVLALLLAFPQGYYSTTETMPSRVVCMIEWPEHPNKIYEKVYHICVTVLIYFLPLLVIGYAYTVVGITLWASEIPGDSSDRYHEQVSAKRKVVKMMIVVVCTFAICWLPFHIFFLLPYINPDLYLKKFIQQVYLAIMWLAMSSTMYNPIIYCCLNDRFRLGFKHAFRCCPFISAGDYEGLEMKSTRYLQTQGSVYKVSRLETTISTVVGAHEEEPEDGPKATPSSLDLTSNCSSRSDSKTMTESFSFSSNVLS
The subject of data set [3] is Caco-2. The experiment in a line: Efflux ratio of permeability from […] in human Caco2 cells. It is filed as ADME, cell-based.
For data set [4], the target named is T1, Substance-K receptor (Homo sapiens, UniProt P21452).
T1 sequence (P21452 whole entry): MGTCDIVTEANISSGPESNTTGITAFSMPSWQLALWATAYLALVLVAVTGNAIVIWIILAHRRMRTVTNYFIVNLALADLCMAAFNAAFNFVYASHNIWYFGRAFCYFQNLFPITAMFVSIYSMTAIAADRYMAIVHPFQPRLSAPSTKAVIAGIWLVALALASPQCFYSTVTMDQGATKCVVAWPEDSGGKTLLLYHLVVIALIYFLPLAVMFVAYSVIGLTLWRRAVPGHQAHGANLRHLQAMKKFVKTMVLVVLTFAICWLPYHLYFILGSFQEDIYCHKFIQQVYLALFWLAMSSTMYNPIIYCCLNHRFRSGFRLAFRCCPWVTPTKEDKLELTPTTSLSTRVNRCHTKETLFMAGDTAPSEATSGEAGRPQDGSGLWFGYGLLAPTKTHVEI
Kind of data set: Displacement of [125I]NKA from human cloned NK2 receptor.

Data set [5] addresses T2, Neuromedin-K receptor (Homo sapiens, UniProt P29371).
T2 sequence (P29371 whole entry): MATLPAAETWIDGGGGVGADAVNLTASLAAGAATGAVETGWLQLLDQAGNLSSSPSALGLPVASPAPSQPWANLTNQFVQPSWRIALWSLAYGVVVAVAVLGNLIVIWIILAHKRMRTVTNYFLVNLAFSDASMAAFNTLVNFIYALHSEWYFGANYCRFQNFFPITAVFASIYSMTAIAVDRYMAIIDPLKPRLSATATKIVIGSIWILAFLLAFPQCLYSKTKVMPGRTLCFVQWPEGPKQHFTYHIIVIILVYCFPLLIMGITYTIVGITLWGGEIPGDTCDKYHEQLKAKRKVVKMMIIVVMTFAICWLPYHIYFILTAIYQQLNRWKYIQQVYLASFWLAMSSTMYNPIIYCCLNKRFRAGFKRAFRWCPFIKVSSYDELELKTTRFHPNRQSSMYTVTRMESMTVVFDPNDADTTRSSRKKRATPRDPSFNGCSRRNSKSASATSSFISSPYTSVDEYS
The experiment in a line: Displacement of [3H]Lu AE93103 from human NK3 receptor expressed in BHK cells. It is filed as cell-based.

Data set [6] has as its system Liver microsomes. The experiment in a line: Intrinsic clearance in human liver microsomes. The data set is classed as ADME, Microsome. (Microsomes from liver hold many membrane-bound enzymes, among them those of drug oxidation.)
Data set [7] can be described thus: Clearance in rat. It is filed as ADME, organism-based. As to conditions: in vivo.
A short description of data set [8]: Ratio of drug level in brain to plasma in sc dosed gerbils after 90 mins. The data set is classed as ADME, organism-based. As to conditions: gerbillinae, read-out: BPR.
Data set [9] relates to Gerbillinae. The experiment in a line: Reversal of senktide-induced explorative behavior in sc dosed gerbils compound pretreated 60 mins before senktide induction by […] assay. The data set is classed as functional.
Data set [10] deals with Liver microsomes. Kind of data set: Intrinsic clearance in rat liver microsomes. It is filed as ADME, Microsome.
A short description of data set [11]: Oral bioavailability in rat. The data set is classed as ADME, organism-based. As to conditions: in vivo.

Take `CC(=O)NC1(c2ccccc2)CCN(C[C@@H]2C[C@@]2(C(=O)N(C)Cc2ccccc2)c2ccc(Cl)c(Cl)c2)CC1`: in data set [1], the Papp worked out at 5.6 ×10⁻⁶ cm/s. The inhibition constant (Ki) was found to be 130 nM in data set [2], 88 nM in [4] and 5.9 nM in [5]. The Ratio in data set [3] was 2.6. Also, the CL in data set [6] was determined as 3.5 L/min.
In turn, `CN(Cc1ccc(F)cc1)C(=O)[C@@]1(c2ccc(Cl)c(Cl)c2)C[C@H]1CN1CCN(S(=O)(=O)N(C)C)CC1` had a clearance in [7] of 108 mL/min/kg. In data set [8], the Kp at 1.5 h turned out to be 1.9. Further, in data set [1], the apparent permeability (Papp) was found to be 25 ×10⁻⁶ cm/s. The inhibitory constant (Ki) in data set [2] was found to be 340 nM; in data set [4], 75 nM; in data set [5] it was 7.6 nM. Besides, in [9], the ED50 was 14.2 mg/kg. For the same compound, in data set [3], the Ratio was determined as 1.5. Besides, the values for the CL in data set [10] and in [6] were 210 mL/min and more than 20 L/min, respectively. Also, the bioavailability in [11] is less than 5%.
Take `CC(C)NC[C@@H]1C[C@@]1(C(=O)N(C)Cc1ccc(F)cc1)c1ccc(Cl)c(Cl)c1`: the Papp in data set [1] came to 11 ×10⁻⁶ cm/s. In addition, the Ratio in data set [3] is 1.5. In addition, in [5], the Ki is 140 nM. Besides, the CL in data set [6] was 0.9 L/min.

In general, Papp refers to the rate of passage across a membrane or cell layer, normalised by area and donor concentration. In general, Ki refers to the dissociation constant of the complex between target and ligand, obtained from inhibition or displacement. Low readings indicate higher affinity, high ones lower affinity. A word on the clearance: it is a measure of how efficiently the substance is removed, as volume per time. Lower therefore signals inefficient removal. What is called ED50 is the dose at which the effect has come halfway, by size or by number of responders. A word on the bioavailability: it is the share of a dose that reaches the circulation, judged against a reference dose that is usually intravenous. A low value points to little systemic uptake.
